The values that follow come from patent US8440720B2, “Methods of use of antiviral compounds” (Influmedix, Inc., priority 2009, dated 2013).

In this experiment the target is T1, M2(S31) (Influenza A virus, UniProt P0DOF5).
T1 construct: expressed in transfected cells; host or cells: CHO cell membranes
Description: Cell-free electrophysiology of M2 proton channels on solid supported membranes (IonGate SURFE2R). Type of experiment: biochemical. Particulars: 25 μM compound, activation by pH jump 7.0 to 6.0, read-out: IonGate_M2(S31)_Screen % Inhibition at 25 μM.

SMILES strings stand for the structures.

T1 sequence (P0DOF5 whole entry): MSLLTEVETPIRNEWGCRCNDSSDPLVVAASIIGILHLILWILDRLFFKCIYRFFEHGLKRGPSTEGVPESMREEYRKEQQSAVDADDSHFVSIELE

In general, inhibition refers to the share of the control response that was lost under treatment. In the case of `NCC12CC3CC(C1)C(F)C(C3)C2` (stereo not shown) [Cpd 8, C-(4-Fluoro-adamantan-1-yl)-methylamine], the inhibition at 25 µM lay in the range of 51 to 95%. Under `O=[N+]([O-])CC12CC3CC(C1)C(F)C(C3)C2` (stereo not shown) [Cpd 28, 4-Fluoro-1-nitromethyl-adamantane] stands 11 to 50%. Under `COC1C2CC3CC1CC(CN)(C3)C2` (stereo not shown) [Cpd 25, C-(4-Methoxy-adamantan-1-yl)-methylamine] stands 51 to 95%; under `N#CC1C2CC3CC1CC(N)(C3)C2` (stereo not shown) [Cpd 16, 5-Amino-adamantane-2-carbonitrile], 51 to 95%. Under `NC12CC3CC(C1)C1(OCCO1)C(C3)C2` [Cpd 24] stands 11 to 50%.

For `c1ncn(C23CC4CC(CC(C4)C2)C3)n1` [Cpd 1], the inhibition at 25 µM was 11 to 50%. Under `COC12CC3CC(CC(N)(C3)C1)C2` [Cpd 32] stands 1 to 10%. For `NC12CC3CC(C1)C(=NO)C(C3)C2` [Cpd 23, 5-Amino-adamantan-2-one oxime] the value was 11 to 50%; for `Nc1nc(N)n(C23CC4CC(CC(C4)C2)C3)n1` [Cpd 3], 11 to 50%; for `NCC12CC3CC(C1)C(O)C(C3)C2` (stereo not shown) [Cpd 7], 11 to 50%. As to `O=[N+]([O-])C12CC3CC(CC(F)(C3)C1)C2` [Cpd 30, 3-Fluoro-1-nitro-adamantane], the inhibition at 25 µM was in the range of 1 to 10%. Under `C1CNC(C23CC4CC(CC(C4)C2)C3)=N1` [Cpd 6] stands 51 to 95%; under `NC12CC3CC(C1)C(F)(F)C(C3)C2` [Cpd 17, 4,4-Difluoro-adamantan-1-ylamine], 11 to 50%. For `NC12CC3CC(C1)C(=O)C(C3)C2` [Cpd 15] the value was 11 to 50%; for `CC1(O)C2CC3CC(C2)CC1(N)C3` (stereo not shown) [Cpd 35, 1-Amino-2-methyl-adamantan-2-ol], 11 to 50%. For `Nc1ccn(C23CC4CC(CC(C4)C2)C3)n1` [Cpd 4] the value was 11 to 50%; for `CC1(F)C2CC3CC1CC(N)(C3)C2` (stereo not shown) [Cpd 18, 4-Fluoro-4-methyl-adamantan-1-ylamine], 51 to 95%. For the compound `NC12CC3CC(C1)C(F)C(C3)C2` (stereo not shown) [Cpd 13, 4-Fluoroadamantan-1-amine], the inhibition at 25 µM lay within 51 to 95%. Turning to `N#CC1C2CC3CC1CC(CN)(C3)C2` (stereo not shown) [Cpd 26, 5-Aminomethyl-adamantane-2-carbonitrile], the inhibition at 25 µM is 51 to 95%. On to `CC1(O)C2CC3CC1CC(CN)(C3)C2` (stereo not shown) [Cpd 11, 5-Aminomethyl-2-methyl-adamantan-2-ol], for which the inhibition at 25 µM fell in the range of 11 to 50%. Under `N=C(N)NC12CC3CC(CC(F)(C3)C1)C2` [Cpd 31, N-(3-Fluoro-adamantan-1-yl)-guanidine] stands 11 to 50%; under `NCC(O)C12CC3CC(CC(C3)C1)C2` (racemic) [Cpd 5], 51 to 95%. As to `NC12CC3CC(C1)CC(F)(C3)C2` [Cpd 12], the inhibition at 25 µM was in the range of 51 to 95%. Under `O=[N+]([O-])CC12CC3CC(C1)C(O)C(C3)C2` (stereo not shown) [Cpd 27, 5-Nitromethyl-adamantan-2-ol] stands 11 to 50%; under `NC12CC3CC(C1)C(CF)C(C3)C2` (stereo not shown) [Cpd 21, 4-Fluoromethyl-adamantan-1-ylamine], 51 to 95%. Under `NC12CC3CC(C1)C(S)C(C3)C2` (stereo not shown) [Cpd 20, 5-Amino-adamantane-2-thiol] stands 11 to 50%; under `NC12CC3CC(CC(C3)C1O)C2` (stereo not shown) [Cpd 34], 51 to 95%. Under `c1cn(C23CC4CC(CC(C4)C2)C3)cn1` [Cpd 2] stands 11 to 50%. For the compound `NC12CC3CC(C1)C(O)C(C3)C2` (stereo not shown) [Cpd 14], the inhibition at 25 µM lay within 11 to 50%. For `NC12CC3CC(C1)CC(S)(C3)C2` [Cpd 29] the value was 51 to 95%. For `NC12CC3CC(C1)C(=S)C(C3)C2` [Cpd 19, 5-Amino-adamantane-2-thione] the value was 11 to 50%.
